The data set can be described thus: solvent given as SMILES.

In turn, `c1ccc2c(c1)CCc1c-2cnc2c1-c1ccccc1CC2` registered an emission maximum (in C1CCOC1) of 356 nm; an emission maximum (in CC#N) of 358 nm; an emission maximum (in CCCCCC) of 358 nm; an emission maximum (in CCOC(C)=O) of 358 nm; an emission maximum (in CO) of 361 nm; an emission maximum (in CS(C)=O) of 360 nm. This molecule had an emission maximum (in Cc1ccccc1) of 362 nm and an emission maximum (in ClCCl) of 363 nm.
Consider `O=c1oc2ccc(Cl)cc2cc1-c1cc2cc(Cl)ccc2o1`, for which the emission maximum reads like this: (in CC#N) 431 nm; (in CCOC(C)=O) 429 nm; (in CS(C)=O) 488 nm; (in Cc1ccccc1) 433 nm; (in O) 473 nm.
In turn, `CC(C)[Si](C#Cc1ccc(-c2c3cccc4c5cccc6c(-c7ccc(C#C[Si](C(C)C)(C(C)C)C(C)C)cc7)c7cccc8c9cccc2c9c(c34)c(c65)c78)cc1)(C(C)C)C(C)C` yielded an emission maximum (in Cc1ccccc1) of 744 nm.
Take `CC[N+](CC)=c1ccc2c(-c3ccccc3C(=O)O)c3oc4cc(N)ccc4c3oc-2c1`: the emission maximum was determined as 622 nm (in CCO), 617 nm (in ClCCl) and 634 nm (in O).
In the case of `COc1ccc2nc(/N=N/c3ccc(N(C)C)cc3)sc2c1`, the emission maximum was 574 nm (in CC#N) and 572 nm (in ClCCl).
Take `c1ccc(B2Nc3cc4c(cc3-c3sccc32)NB(c2ccccc2)c2ccsc2-4)cc1`: where the note is “in ClCCl”, the emission maximum is listed as 412 nm.
With `N#Cc1c(N2CCCCC2)cc(-c2ccccc2)c2c1Cc1ccccc1-2`, where the note is “in C1CCOC1”, the emission maximum came to 449 nm.
With `Cc1c(COC(=O)Cc2cccc3ccccc23)n2c(OCC(=O)Cc3cccc4ccccc34)c(C)c(=O)n2c1=O`, the emission maximum (in CCO) amounted to 458 nm.
As for `CCC1=C(C)C2=C(c3cc(C(=O)Cl)cc(C4=C5C(C)=C(CC)C(C)=[N+]5[B-](F)(F)n5c(C)c(CC)c(C)c54)c3)c3c(C)c(CC)c(C)n3[B-](F)(F)[N+]2=C1C`, the emission maximum (in C1CCOC1) is reported as 549 nm; the emission maximum (in CC#N) came out at 548 nm; the emission maximum (in CN(C)C=O) was 560 nm; the emission maximum (in Cc1ccccc1) came out at 562 nm; the emission maximum (in ClC(Cl)Cl) worked out at 562 nm.
Consider `CN(C)c1ccc(C2=Nc3scc(-c4ccc([N+](=O)[O-])cc4)[n+]3[B-](F)(F)O2)cc1`, for which the emission maximum worked out at 454 nm (in C1CCOC1), 453 nm (in CC#N), 447 nm (in Cc1ccccc1) and 454 nm (in ClCCl).
The molecule `C(=C\c1cc[n+]2ccc(/C=C/c3cc[nH]c3)cc2c1)/c1cc[nH]c1` came in with an emission maximum (in CO) of 542 nm.
On to `COC(=O)CCC1=CC(C#Cc2ccc(OC)cc2)=[N+]2C1=Cc1c(CCC(=O)OC)cc(C#Cc3ccc(OC)cc3)n1[B-]2(F)F`, for which, for the setting “in ClCCl”, the emission maximum stood at 682 nm.
For `O=C(c1ccc(C(=C(c2ccccc2)c2ccccc2)c2ccccc2)cc1)c1ccc(-n2c3ccccc3c3ccccc32)cc1`, the emission maximum (in C1CCOC1) is reported as 496 nm.
The molecule `Cc1ccc(-c2nc(-c3ccccc3O)[nH]c2-c2ccc(C)cc2)cc1` displayed an emission maximum (in CO) of 430 nm.
For `c1ccc(N(c2ccccc2)c2ccc(-c3ccc(-c4ccc(N(c5ccccc5)c5ccccc5)cc4)c4nsnc34)cc2)cc1`, the emission maximum (in ClCCl) turned out to be 639 nm.
Same read-out and setting: the same measure for `CC(C)[Si](C#Cc1c2cc3ccccc3cc2c(C#C[Si](C(C)C)(C(C)C)C(C)C)c2cc3ccccc3cc12)(C(C)C)C(C)C`: 649 nm.
Molecule `O=Cc1ccc(-c2ccc(-c3nc4ccccc4s3)c(O)c2)s1` returned an emission maximum (in CCO) of 540 nm, an emission maximum (in ClCCl) of 535 nm and an emission maximum (in O) of 557 nm.
For `c1cc2cc(c1)c1ccc3c(c1)c1cc(ccc1[C@]14OCCO[C@]31OCCO4)c1ccc3c(c1)c1cc(ccc1[C@]14OCCO[C@]31OCCO4)c1cccc2c1`, for the setting “in ClC(Cl)Cl”, the emission maximum was 347 nm.
`CC(C)(C)c1ccc(-c2c(-c3ccc(N(c4ccccc4)c4ccccc4)cc3)cc(-c3ccc(N(c4ccccc4)c4ccccc4)cc3)c(-c3ccc(C(C)(C)C)cc3)c2-c2ccc(C(C)(C)C)cc2)cc1`: under “in C1CCOC1”, the emission maximum is given as 406 nm.
The molecule `O=C1CC(c2ccccc2)c2c(c3ccccc3c3nc4ccccc4nc23)O1` (configuration not stated) returned an emission maximum (in ClC(Cl)Cl) of 431 nm.
Take `CC1=[N+]2C(=Cc3ccc(C)n3[B-]2(F)F)C=C1c1cc2n(c1)[B-](F)(F)[N+]1=CC=CC1=C2c1c(C)cc(C)cc1C`: the emission maximum (in C1CCCCC1) is given as 636 nm and the emission maximum (in CCOC(C)=O) is on record as 683 nm.
As for `Cc1ccc2c(c1)C1(c3ccccc3-c3ccccc31)c1cc(C)ccc1N2c1ccc2c(c1)Sc1ccccc1P2(=S)c1ccccc1` (configuration not stated), the emission maximum (in Cc1ccccc1) is on record as 454.61 nm.
Regarding `c1ccc(-c2cc(-c3ccccc3)cc(-c3ccccc3)c2)cc1`, under “in C1COCCO1”, the emission maximum is 354 nm.
The molecule `N#Cc1ccc(-n2c3ccccc3c3c2c2ccccc2n3-c2ccccc2)cc1` had an emission maximum (in Cc1ccccc1) of 460 nm.
With `c1cc(-c2ccc(-n3c4ccccc4c4ccccc43)cc2)c2nsnc2c1`, the emission maximum (in ClCCl) is 537 nm.
For the molecule `COc1ccc(C2=C(Br)C(c3ccccc3)=[N+]3C2=Nc2c(-c4ccc(OC)cc4)c(Br)c(-c4ccccc4)n2[B-]3(F)F)cc1`, the emission maximum (in Cc1ccccc1) is given as 691 nm.
Under “in ClCCl”, `CCCc1ccc(C#Cc2cc(C#Cc3ccc(CCC)cc3)c3ccc4c(C#Cc5ccc(CCC)cc5)cc(C#Cc5ccc(CCC)cc5)c5ccc2c3c54)cc1` came in with an emission maximum of 494 nm.
In turn, `CN(C)c1cc(-c2ccc(C#Cc3cc[n+](C)cc3)cc2)cc2ccccc12` displayed an emission maximum (in ClCCl) of 510 nm.
Regarding `c1ccc(-c2nc(-c3ccccc3)nc(-c3ccc(-n4c5ccccc5c5cc6c7ccccc7n7c8ccccc8c(c54)c67)cc3)n2)cc1`, the emission maximum by setting is: (in Cc1ccccc1) 450 nm; (in O=P(c1ccccc1)(c1ccccc1)c1ccc2oc3ccc(P(=O)(c4ccccc4)c4ccccc4)cc3c2c1) 460 nm.
Where the note is “in ClC(Cl)Cl”, `COc1cc(-c2cc(-c3ccccc3)c(-c3ccccc3)c(-c3ccccc3)c2-c2ccccc2)c(OC)cc1-c1ccc(N(C)C)cc1` registered an emission maximum of 396 nm.
`c1ccc(-c2nc(-c3ccccn3)[se]c2N(c2ccccc2)c2ccccc2)cc1` displayed an emission maximum (in ClC(Cl)Cl) of 498 nm.
Take `COc1cc2c3c4c(c5ccc(C(C)(C)C)cc5c5cc(C(C)(C)C)cc(c2c(OC)c1OC)c45)=[N+]1C3=Nc2c3c4cc(OC)c(OC)c(OC)c4c4cc(C(C)(C)C)cc5c6cc(C(C)(C)C)ccc6c(c3c54)n2[B-]1(F)F`: the emission maximum (in Cc1ccccc1) was 832 nm.
The molecule `c1ccc2c(c1)c1ccccc1c1ccccc21` had an emission maximum (in ClCCl) of 355 nm.
As for `c1ccc2c(-c3nc4sc5ccccc5c4s3)cccc2c1`, the emission maximum (in CS(C)=O) came to 447 nm.
Take `CN1/C(=C/C=C(/C=C/C2=[N+](C)c3ccccc3C2(C)C)c2ccc(F)cc2)C(C)(C)c2ccccc21`: the emission maximum by setting is: (in CCO) 666 nm; (in CO) 666 nm; (in CS(C)=O) 669 nm; (in O) 662 nm.
On to `CC1=[N+]2C(=C(Oc3ccccc3)c3ccc(C)n3[B-]2(F)F)C=C1c1cc2n(c1)[B-](F)(F)[N+]1=CC=CC1=C2c1c(C)cc(C)cc1C`, for which the emission maximum runs as follows: (in C1CCCCC1) 630 nm; (in CCOC(C)=O) 665 nm.
Consider `CC(C)(C)NC(=O)c1c([Si](C)(C)C)cc2ccc3cccc4ccc1c2c34`, for which the emission maximum (in ClC(Cl)Cl) was determined as 383 nm.
With `Cc1ccc(C2=C3C=CC=[N+]3[B-](F)(F)n3cccc32)cc1`, the emission maximum is, setting by setting: (in C1CCCCC1) 516 nm; (in CC#N) 514.5 nm; (in CCO) 514.5 nm; (in CCOC(C)=O) 514.5 nm; (in CO) 513.5 nm; (in OCC(F)(F)F) 509.5 nm.
On to `CC(C)(C)c1cc2ccc3c(N(c4ccc(F)cc4)c4ccc(F)cc4)cc(N(c4ccc(F)cc4)c4ccc(F)cc4)c4ccc(c1)c2c34`, for which the emission maximum (in ClCCl) turned out to be 465 nm.
Turning to `O=S(=O)([O-])c1ccc(/C=C/c2ccc(-c3nnc(-c4ccc(/C=C/c5ccc(S(=O)(=O)[O-])cc5S(=O)(=O)[O-])cc4)o3)cc2)c(S(=O)(=O)[O-])c1`, the emission maximum is, setting by setting: (in C1CCOC1) 416 nm; (in CC(C)=O) 415 nm; (in CN(C)C=O) 430 nm.
Molecule `CCOC(=O)CSc1nc(-c2ccc(OC)cc2)c(C)c(C#N)c1C#N` showed an emission maximum (in c1ccccc1) of 432 nm.
Turning to `CCC1(CC)c2cc(Br)ccc2-c2c1c1c(c3c2C(CC)(CC)c2cc(-c4cccs4)ccc2-3)C(CC)(CC)c2cc(Br)ccc2-1`, the emission maximum (in C1CCOC1) is 371 nm.
On to `N#Cc1c(-n2c3ccccc3c3ccccc32)c(-n2c3ccccc3c3ccccc32)cc(-n2c3ccccc3c3ccccc32)c1-n1c2ccccc2c2ccccc21`, for which the emission maximum is, setting by setting: (in CCCCCC) 439.08 nm; (in CCO) 468.52 nm; (in Cc1ccccc1) 442 nm; (in ClCCl) 456.64 nm.
`CCCCCCOc1cc(C=C2C(=O)c3ccccc3C2=O)c(OCCCCCC)cc1C=C1C(=O)c2ccccc2C1=O`: the emission maximum (in ClCCl) came to 622 nm.
On to `COc1c2ccccc2c(OC)c2c1c1cc(Cl)ccc1n2C`, for which the emission maximum runs as follows: (in C1CCCCC1) 421 nm; (in CC#N) 432 nm; (in CO) 428 nm; (in ClCCl) 431 nm.
On to `CCOC(=O)c1cc(C(=O)OCC)c2cc(N)ccc2n1`, for which the emission maximum (in CCO) worked out at 537 nm.
For the setting “in ClC(Cl)Cl”, `CCCCN1C(=O)c2cc(Br)c3c4c(Br)c(Br)c5c6c(cc(Br)c(c7c(Br)c(Br)c(c2c37)C1=O)c64)C(=O)N(CCCC)C5=O` yielded an emission maximum of 580 nm.
On to `CC1=[N+]2C(=c3c4c5ccccc5cc5cccc(c6cc(C)n(c36)[B-]2(F)F)c54)C=C1`, for which the emission maximum came to 637 nm (in C1CCOC1); 637 nm (in CCCCCC); 637 nm (in CO); 639 nm (in CS(C)=O); 637 nm (in ClC(Cl)Cl); 638 nm (in ClCCl).
Molecule `CC1=CC(C)=[N+]2C1=C(c1ccc(I)cc1)c1c(C)cc(C)n1[B-]2(OC(C)C)OC(C)C` showed an emission maximum (in ClC(Cl)Cl) of 517.73 nm.
As for `COC(=O)c1ccc(/C=C2\C=C(c3ccc(OC)c(OC)c3)NC2=O)cc1`, the emission maximum (in C1COCCO1) was 574 nm.

The record behind these values is the Deep4Chem optical property database.
